Measurements taken from patent publication US7872036B2, “3-triazolylphenyl sulfide derivative and insecticide, miticide and nematicide containing it as an active ingredient” (Kumiai Chemical Industry Co., Ltd., priority 2004, dated 2011).

Columns and labels:
two-spotted spider mites [1] = test: Miticidal test on two-spotted spider mites (by dipping); format: in vivo, Tetranychus urticae; parameters: scale not given here; details: dipping of soybean seedlings, active ingredient 500 ppm, 25° C., 13 days
Protocol: (§1) Wettable powders were prepared in accordance with Formulation Example 2 and diluted with water to an active ingredient concentration of 500 ppm. Soybean seedlings which had been inoculated with imago two-spotted spider mites were dipped in the resulting solutions and dried in air. The treated seedlings were placed in a thermostatic chamber at 25° C. for 13 days, and the mite survivors were counted for calculation of the miticidal value by using Equation 2. The test was carried out by one series system.

two-spotted spider mites [2] = test: Miticidal test on two-spotted spider mites (by soil drenching); format: in vivo, Tetranychus urticae; parameters: scale not given here; details: active ingredient 100 ppm, 5 ml per 100 g soil, 25° C., 13 days
Protocol: as §1, with “100” for “500”, “100 g of the soil in cups with soybean” for “Soybean”, “drenched with 5 ml of” for “dipped in”, “solutions.” for “solutions and dried in air.”, “[…]” for “thermostatic”, “2.” for “2. The test was carried out by one series system.”

brown planthoppers = test: Insecticidal test on brown planthoppers; format: in vivo, Nilaparvata lugens; details: active ingredient 500 ppm, germinating rice immersed, 4th-instar larvae, 25° C., 6 days
Protocol: Wettable powders were prepared in accordance with Formulation Example 2 and diluted with water to an active ingredient concentration of 500 ppm. Germinating rice was immersed in the resulting solutions and put in a plastic cup with a capacity of 60 ml. Ten 4th-instar larvae of brown planthoppers were released to the cup, and the cup was covered and placed in a thermostatic chamber at 25° C. for 6 days, and the survivors were counted for calculation of the insecticidal degree by using Equation 1. The test was carried out by one series system.

[3] = tested on: southern root-knot nematodes; test: Nemastatic test on southern root-knot nematodes; format: in vivo, Meloidogyne sp.; details: diluted solution 20 ppm mixed 1:1 with suspension of second stage larvae, 25° C., 5 days
Protocol: Compounds of the present invention (5 parts) and Tween 20 (tradename for polyoxyethylene sorbitan monolaurate) (1 part) as a spreader were dissolved n N,N-dimethylformamide (94 parts) to prepare 5% emulsifiable concentrates of the compounds of the present invention. Distilled water was added to the emulsifiable concentrates to prepare diluted solutions having a concentration of the compounds of the present invention of 20 ppm. 0.5 ml of the diluted solutions and 0.5 ml of water suspensions containing 100 second stage larvae of southern root-knot nematodes were mixed, and the mixture were placed in a thermostatic chamber at 25° C. for 5 days, and the survivors were counted for calculation of the nemastatic degree by using Equation 3. The test was carried out by two series system.

| Compound | Miticidal value (two-spotted spider mites [1]) | Miticidal value (two-spotted spider mites [2]) | Insecticidal degree (%) (brown planthoppers) | Nemastatic degree (%) [3] |
| --- | --- | --- | --- | --- |
| Cc1cc(F)c(-n2nc(C(F)(F)F)nc2NC(=O)C(F)(F)F)cc1SCC(F)(F)F [Compound 5, [5-(5-trifluoroacetylamino-3-trifluoromethyl-1,2,4-triazolyl)-4-fluoro-2-methylphenyl]2,2,2-trifluoroethyl sulfide] | 100 | 100 | 100% |  |
| Cc1cc(F)c(-n2nc(C(C(F)(F)F)C(F)(F)F)nc2N)cc1[S+]([O-])CC(F)(F)F (racemic) [Compound 183] | 100 | 100 |  |  |
| C#CCNc1nc(SC(F)(F)C(F)(F)F)nn1-c1cc([S+]([O-])CC(F)(F)F)c(C)cc1F (racemic) [Compound 194] | 100 | 100 | 100% |  |
| COC(=O)Nc1nc(C(F)(F)F)nn1-c1cc([S+]([O-])CC(F)(F)F)c(C)cc1F (stereo not drawn) [Compound 80] | 100 | 100 | 100% |  |
| Cc1cc(F)c(-n2nc(C(F)(F)F)nc2NC(=O)CCl)cc1[S+]([O-])CC(F)(F)F (racemic) [Compound 190] | 100 | 100 | 100% |  |
| CCC(=O)Nc1nc(C(F)(F)F)nn1-c1cc([S+]([O-])CC(F)(F)F)c(C)cc1F (racemic) [Compound 187] | 100 | 99 | 100% |  |
| CC(=O)Nc1nc([S+]([O-])CC(F)(F)F)nn1-c1cc([S+]([O-])CC(F)(F)F)c(C)cc1F (stereo not drawn) [Compound 157] | 100 | 100 | 100% |  |
| CNc1nc(C(F)(F)F)nn1-c1cc([S+]([O-])CC(F)(F)F)c(C)cc1C (stereo not drawn) [Compound 147] | 100 | 100 |  |  |
| Cc1cc(F)c(-n2nc(C(F)(F)F)nc2NC(=O)NC(C)C)cc1[S+]([O-])CC(F)(F)F (racemic) [Compound 202] | 100 | 100 | 100% |  |
| CC(=O)Nc1nc(C(C)(C)C)nn1-c1cc([S+]([O-])CC(F)(F)F)c(C)cc1F (stereo not drawn) [Compound 113] | 100 | 100 | 100% |  |
| N#Cc1ccc(-n2nc(C(F)(F)F)nc2N)cc1[S+]([O-])CC(F)(F)F (stereo not drawn) [Compound 121] | 100 | 100 |  |  |
| CNc1nc(SCC(F)(F)F)nn1-c1cc(SCC(F)(F)F)c(C)cc1F [Compound 160] |  |  | 100% | 100% |
| Cc1cc(F)c(-n2nc(SCC#N)nc2N)cc1[S+]([O-])CC(F)(F)F (stereo not drawn) [Compound 141] |  |  | 100% | 97% |
| Cc1cc(Cl)c(-n2nc(C(F)(F)F)nc2N)cc1[S+]([O-])CC(F)(F)F (stereo not drawn) [Compound 8, [5-(5-amino-3-trifluoromethyl-1,2,4-triazolyl)-4-chloro-2-methylphenyl]2,2,2-trifluoroethyl sulfoxide] | 100 | 100 |  |  |
| CNc1nc(C(F)(F)F)nn1-c1cc([S+]([O-])CC(F)(F)F)c(C)cc1Cl (stereo not drawn) [Compound 98] | 100 | 100 |  |  |
| CC[S+]([O-])c1nc(N)n(-c2cc(SCC(F)(F)F)c(C)cc2F)n1 (stereo not drawn) [Compound 23] |  |  | 90% | 100% |
| C#CCNc1nc(SCC(F)(F)F)nn1-c1cc([S+]([O-])CC(F)(F)F)c(C)cc1F (racemic) [Compound 185] | 100 | 100 | 100% |  |
| Cc1cc(F)c(-n2nc(C(F)(F)F)nc2NC(C)C)cc1[S+]([O-])CC(F)(F)F (stereo not drawn) [Compound 167] | 100 | 100 | 100% |  |
| Cc1cc(F)c(-n2nc(C(F)(F)F)nc2NC(=O)C(F)(F)Cl)cc1[S+]([O-])CC(F)(F)F (racemic) [Compound 192] | 100 | 100 | 100% |  |
| CNc1nc(C(F)(F)F)nn1-c1ccc(C)c(SCC(F)(F)F)c1 [Compound 37] | 100 | 100 | 100% |  |
| Cc1cc(F)c(-n2nc([S+](C)[O-])nc2N)cc1SCC(F)(F)F (stereo not drawn) [Compound 17] |  |  | 100% | 99% |
